“Also recorded” adds a separate entry of the source.
Legend:
[1] = 2-deoxyribose oxidative degradation assay (hydroxyl radical formation); settings: chelator 0-400 μM, 200 μM H2O2, 10 μM FeCl3, 2 mM ascorbic acid, 15 mM deoxyribose, pH 7.4, 60 min at 37° C.
Procedure: Effect of chelator concentration on deoxyribose degradation by OH.. A and A0 are the absorbance at 532 nm in the presence or absence of chelator, respectively. Values below A/Ao=1 indicate protection of deoxyribose. Conditions: 200 μM H2O2, 10 μM FeCl3, 2 mM ascorbic acid, 15 mM deoxyribose in pH 7.4 NaHPO4 buffer.
Values of A/Ao above 1 indicate that the additive promotes OH. formation, whereas values below 1 indicate that the additive either scavenges OH. more efficiently than deoxyribose, or that it inhibits iron-catalyzed OH. formation via effective iron chelation.
The formation of hydroxyl radicals was measured by using a 2-deoxyribose oxidative degradation assay (Aruoma, O. I., Deoxyribose Assay for Detecting Hydroxyl Radicals. In Methods in Enzymol., 1994; Vol. 233, pp 57-66; Halliwell, B. et al., Anal. Biochem. 1987, 165, 215-219). In this assay, hydroxyl radicals, generated by reaction of an iron complex with H2O2 in the presence of ascorbic acid as a reducing agent, attack 2-deoxyribose to form malondialdehyde, which upon heating with TBA at low pH yields a pink chromogen (λmax=532 nm). Scavengers that react more effectively with hydroxyl radicals than deoxyribose result in less chromogen formation. Chelators that prevent iron from reacting with H2O2 also result in a decrease in absorption at 532 nm. Many standard buffers such as HEPES and TRIS are hydroxyl radical scavengers; therefore, we performed all assays in 50 mM NaH2PO4 buffered to pH 7.4. Our standard reaction conditions consisted of 1-mL buffered solutions prepared by sequential addition of the following reagents at their final concentrations: chelator (0-400 μM), FeCl3 (10 μM), 2-deoxyribose (15 mM), H2O2 (200 μM) and ascorbic acid (2 mM). The reactions were stirred for 60 min at 37° C., then quenched with 1 mL of TBA (1% w/v in 0.05 M NaOH) and 1 mL of TCA (2.8% w/v in water). After heating to 100° C. for 20 min, the solutions were cooled to room temperature and their absorbance at 532 nm recorded. The data are reported as A/Ao, where A is the absorbance at a 532 nm at a specific chelator concentration, and Ao is the absorbance at 532 nm for the background reaction containing no added chelator. All measurements were done in triplicate, and error bars reflect the standard deviation from triplicate runs.

[2] = UV-vis spectra of iron complex formation; assay type: physicochemical; settings: 60 μM BSIH, 30 μM Fe(NO3)3 in MeOH
Excerpt: FIG. 1. […] The expanded view in the inset compares the mono and bis species [Fe(SIH)Cl2(CH3OH)] and [Fe(SIH)2]NO3, respectively.
These two species are distinguishable by a ligand-field band centered at 658 nm that is more pronounced in the mono species compared to the bis species (FIG. 1 inset).

[3] = time course for iron complex formation following addition of excess H2O2 (UV-vis); assay type: physicochemical; settings: 100 mM H2O2 added to 1.5 mM Fe(NO3)3 and 3.0 mM BSIH in MeOH
Procedure: FIG. 2. UV-vis spectra showing the formation of [Fe(SIH)]^2+ and [Fe(SIH)2]^+ upon addition of 100 mM H2O2 to a solution of 1.5 mM Fe(NO3)3 and 3.0 mM BSIH in MeOH.
Although the kinetics are complicated by the mono to bis Fe(SIH)x coordination, the data fit a pseudo first-order expression to give kobs=1.6×10^−3 s^−1.

SMILES | effect of chelator concentration on deoxyribose degradation, A/Ao at 532 nm [1] | iron complex formation after addition of H2O2 (UV-vis spectrum) ([2]; 0.6 mM H2O2 added) | complex formation with Fe^3+ (UV-vis spectrum) ([2]; no H2O2) | kobs (pseudo first-order) for iron complex formation [3]
CC(=O)N(O)CCCCCNC(=O)CCC(=O)N(O)CCCCCNC(=O)CCC(=O)N(O)CCCCCN [DFO, desferrioxamine] | decrease |  |  | 
CC1(C)OB(c2ccccc2C=NNC(=O)c2ccncc2)OC1(C)C [BSIH, Isonicotinic acid [2-(4,4,5,5-tetramethyl-[1,3,2]dioxaborolan-2-yl)-benzylidene]-hydrazide] | protects against deoxyribose degradation as well as both DFO and SIH | results in formation of a new spectrum matching that of [Fe(SIH)2]^+; also recorded: results in a spectrum (open circles) that matches that of [Fe(SIH)2]^+ | does not form a complex; also recorded: no complex formation | 0.0016 s⁻¹
CC1(C)OB(c2ccccc2C=O)OC1(C)C [Bsal, (2-formylphenyl)boronic acid pinacol ester] | Neither Bsal nor Sal has a significant influence |  |  | 
O=C(NN=Cc1ccccc1O)c1ccncc1 [SIH, salicylaldehyde isonicotinoyl hydrazone] | decrease |  |  | 
O=C(O)CN(CCN(CC(=O)O)CC(=O)O)CC(=O)O [EDTA] | significant increase |  |  | 
